Data on two compounds can be found in ChEMBL document CHEMBL1201862, “PubChem BioAssay data set” (2004).

The source made the active and inactive calls. Rule as the data show it, for most assays here: actives have a measured IC50 and inactives only a lower limit.

The target in experiment [1] is T1, Sentrin-specific protease 7 (Homo sapiens, UniProt Q9BQF6).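 Also: Luminescence-based dose-response confirmation of ultra-high-throughput screening hits, measuring inhibition of SENP7.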
T1 sequence (Q9BQF6 whole entry): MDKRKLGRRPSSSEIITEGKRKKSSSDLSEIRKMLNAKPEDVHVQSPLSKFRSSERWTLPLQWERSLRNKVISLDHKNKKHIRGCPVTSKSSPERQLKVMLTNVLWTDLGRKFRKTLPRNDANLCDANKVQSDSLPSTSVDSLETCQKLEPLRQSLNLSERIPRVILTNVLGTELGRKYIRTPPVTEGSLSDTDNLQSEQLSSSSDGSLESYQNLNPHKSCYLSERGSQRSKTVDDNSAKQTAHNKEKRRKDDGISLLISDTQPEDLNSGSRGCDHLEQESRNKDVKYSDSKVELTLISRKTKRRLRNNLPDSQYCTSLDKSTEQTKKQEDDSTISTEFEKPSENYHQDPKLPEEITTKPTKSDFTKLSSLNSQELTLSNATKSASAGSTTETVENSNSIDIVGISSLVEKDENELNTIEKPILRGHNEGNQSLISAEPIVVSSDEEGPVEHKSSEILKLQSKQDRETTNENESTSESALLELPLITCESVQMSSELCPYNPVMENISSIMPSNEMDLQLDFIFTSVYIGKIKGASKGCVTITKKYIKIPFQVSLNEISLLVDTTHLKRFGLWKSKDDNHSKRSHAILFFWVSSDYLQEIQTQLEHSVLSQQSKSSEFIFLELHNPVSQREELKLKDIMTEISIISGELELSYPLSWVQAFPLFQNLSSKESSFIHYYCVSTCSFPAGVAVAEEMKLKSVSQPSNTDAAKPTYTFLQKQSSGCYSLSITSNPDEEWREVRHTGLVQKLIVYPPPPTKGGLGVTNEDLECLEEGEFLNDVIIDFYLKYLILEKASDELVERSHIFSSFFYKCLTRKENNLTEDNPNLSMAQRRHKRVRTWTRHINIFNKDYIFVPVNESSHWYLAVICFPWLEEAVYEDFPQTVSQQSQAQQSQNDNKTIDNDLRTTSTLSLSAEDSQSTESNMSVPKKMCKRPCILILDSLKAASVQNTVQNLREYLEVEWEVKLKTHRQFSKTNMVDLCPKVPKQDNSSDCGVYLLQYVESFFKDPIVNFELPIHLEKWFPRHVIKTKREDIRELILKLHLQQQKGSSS
The experiment is classed as functional.

The target in experiment [2] is T2, Apoptotic protease-activating factor 1 (Homo sapiens, UniProt O14727).
T2 sequence (O14727 whole entry): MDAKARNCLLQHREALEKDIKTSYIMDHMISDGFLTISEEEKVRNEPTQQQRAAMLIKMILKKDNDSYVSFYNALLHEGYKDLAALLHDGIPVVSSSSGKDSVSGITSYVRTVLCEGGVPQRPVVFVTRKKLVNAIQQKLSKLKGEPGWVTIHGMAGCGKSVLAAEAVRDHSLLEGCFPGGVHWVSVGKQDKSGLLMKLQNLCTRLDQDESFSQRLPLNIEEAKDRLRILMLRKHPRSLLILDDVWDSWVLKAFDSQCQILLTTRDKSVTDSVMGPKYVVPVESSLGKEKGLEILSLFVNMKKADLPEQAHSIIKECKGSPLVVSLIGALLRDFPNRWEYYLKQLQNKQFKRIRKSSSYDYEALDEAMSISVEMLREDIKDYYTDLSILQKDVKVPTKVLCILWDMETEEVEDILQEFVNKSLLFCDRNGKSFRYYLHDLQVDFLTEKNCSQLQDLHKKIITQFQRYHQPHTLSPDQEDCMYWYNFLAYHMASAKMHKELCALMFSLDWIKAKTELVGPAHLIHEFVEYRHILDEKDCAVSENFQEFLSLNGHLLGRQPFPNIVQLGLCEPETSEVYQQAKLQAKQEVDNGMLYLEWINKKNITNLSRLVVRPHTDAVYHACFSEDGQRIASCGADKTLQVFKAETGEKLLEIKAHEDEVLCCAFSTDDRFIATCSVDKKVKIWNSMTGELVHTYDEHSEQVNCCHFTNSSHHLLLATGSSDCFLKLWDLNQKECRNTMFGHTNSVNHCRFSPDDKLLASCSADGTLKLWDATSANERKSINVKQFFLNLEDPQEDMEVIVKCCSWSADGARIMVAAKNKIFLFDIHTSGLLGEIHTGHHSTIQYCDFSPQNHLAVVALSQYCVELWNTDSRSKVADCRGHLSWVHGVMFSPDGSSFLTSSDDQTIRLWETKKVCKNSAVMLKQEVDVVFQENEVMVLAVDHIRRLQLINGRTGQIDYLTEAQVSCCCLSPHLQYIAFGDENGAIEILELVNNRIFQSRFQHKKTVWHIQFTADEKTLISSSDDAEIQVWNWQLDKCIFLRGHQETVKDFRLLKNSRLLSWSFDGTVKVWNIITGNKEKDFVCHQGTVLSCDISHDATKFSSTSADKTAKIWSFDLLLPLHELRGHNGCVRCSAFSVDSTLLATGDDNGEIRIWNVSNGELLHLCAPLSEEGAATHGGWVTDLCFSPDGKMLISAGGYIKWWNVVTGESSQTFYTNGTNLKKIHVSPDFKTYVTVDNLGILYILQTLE
In kind it is functional.

The target of experiment [3] is Tyrosyl-DNA phosphodiesterase 2 (Homo sapiens, UniProt O95551). Kind of experiment: potency against TDP2 phosphodiesterase activity – biochemical, epi absorbance, IC50, dose response (AID 743297).
Sequence of Tyrosyl-DNA phosphodiesterase 2 (O95551 whole entry): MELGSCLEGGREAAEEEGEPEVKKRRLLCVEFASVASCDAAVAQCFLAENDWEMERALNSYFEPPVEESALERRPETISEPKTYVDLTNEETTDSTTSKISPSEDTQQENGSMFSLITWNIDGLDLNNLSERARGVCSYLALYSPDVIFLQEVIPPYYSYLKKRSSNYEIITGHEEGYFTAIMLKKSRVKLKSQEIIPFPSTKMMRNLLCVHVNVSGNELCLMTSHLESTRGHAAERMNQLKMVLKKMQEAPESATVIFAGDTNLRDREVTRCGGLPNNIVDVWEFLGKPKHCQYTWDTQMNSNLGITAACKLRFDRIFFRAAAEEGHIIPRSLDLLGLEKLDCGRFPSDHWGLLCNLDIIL

A word on the IC50: it is the point on the concentration scale where inhibition reaches its midpoint. In the case of `Oc1[nH]c2ccccc2c1N=Nc1ccc(F)cc1`, the concentration for half-maximal inhibition (IC50) in experiment [1] is 1.51 µM (active). Take `O=C1C(Nc2ccccc2)=C(N2CCCCC2)C(=O)c2ccccc21`: the IC50 in experiment [2] is 4.78 µM (active); in experiment [3] it was > 128 µM (inactive).
